We go through five compounds from US6239284A, “Aromatic tetracyclic compounds of the retinoid type method for preparing and use” (priority 1997, dated 2001).

The subject of one test is MCF-7 cells. Nature of the test: Anti-proliferation effect, estrogen-induced growth of MCF-7 cells. The class given is cell-based, human. The method, then:
(§1) So as to test the anti-proliferation effect of the retinoids, growth experiments under oestrogenic conditions were carried out on cells MCF-7 and T-47D. These are the human estrogen-dependent mammary cancer cells which express the receptor to RE estrogens. The effect of the molecules is evaluated after 7 days of culture in oestrogenic conditions (estradiol 10^-9 M) by dosing the cellular DNA. The cells are distributed in 24 well plates at a density of 2×10^4 cells per well. The tests with the different retinoids are carried out in triplicate and the culture medium is changed after 4 days of growth.
(§2) The effect of the retinoids on the growth of MCF-7 and T-47D cells is evaluated after 7 days of culture in the presence of 10^-9 M estradiol by dosing the cellular DNA.

A further test has as its system RARβ. Nature of the test: Transactivation of chimerical receptor RARβ-ERcassette, transient transfection of HeLa cells. The following applies: for RAR-ERcassette RARβ transactivation (%): 100% = TTNPB 10^-8 M. The class given is cell-based. The source says:
(§3) The HeLa cells are co-transfected by a plasmid which codes for a retinoic receptor in which the C domain of bonding to the DNA is substituted by that of the receptor to RE estrogens, and a plasmid which places the expression of the luciferase under the control of an ERE (Element of Response to Estrogens). The expressed chimerical receptors are designated as RARα-ERcassette, RARβ-ERcassette, RARγ-ERcassette and RXRα-ERcassette. The A, B, D, E and F regions of the natural receptor are preserved as well as the transcriptional co-operation between the activation domains AF-1 and AF-2. These transitory transfection experiments follow the method of co-precipitation to calcium phosphate. The HeLa cells are co-transfected by […] of plasmid coding for the chimerical receptor, […] of reporter plasmid and […] of expression vector CMV-β-galactosidase used as an internal control of transfection. 24 hours after the transfection, the cells are incubated for 16 hours with the different effectors.
(§4) In this type of chimerical receptor, the C domain of bonding to the DNA of RAR is substituted by that of the receptor to the RE estrogens. The protein obtained is close to the natural RAR receptor and preserves the transcriptional properties of the AF-1 and AF-2 domains. It modulates the transcription by means of an ERE. This RAR-ERcassette model allows one to observe a transcriptional response to a more physiological ligand.
(§5) The study of the selectivity of the compounds was carried out with the RAR-ERcassette chimerical receptors model.
(§6) On one and the same line in the Table, the cis (Z) compound represents the isomeric structure of the trans (E) compound.

The next test deals with AP-1. Nature of the test: Anti-AP-1 effect, MTLN cellular lineage (MCF-7 with (TRE)3-tk-Luc) activated by TPA. The class given is cell-based, human. The following applies: for inhibition at 1 µM: Homo sapiens, AP1, read-out: Inhibition of AP-1 route (MTLN); for Anti-AP-1 effect, Inhibition (%): 10^-7 M TPA, range of several experiments. The method, then:
The anti-factor AP-1 transrepressor effect of retinoids is determined using the MTLN lineage, coming from MCF-7 cells transfected in a stable fashion by a vector p(TRE)3 -tk-Luc which places the expression of the gene of luciferase under the control of […]. TPA activates the AP-1 complex formed from proteins of the family of nuclear proto-oncogenes (c-Jun and c-Fos). […] The experiments ware made with the MTLN cells activated by 10^-7 M TPA.
The effect of the compounds on the MTLN cells activated by 10^-7 M TPA is expressed as a percentage. […] The inhibitive properties of the products are calculated after deduction of the base activity of the cells. The percentages reported correspond to a range of inhibitions determined from several experiments.

Another test relates to T-47D cells. The test is described as follows: Anti-proliferation effect, estrogen-induced growth of T-47D cells. The class given is cell-based, human. As to the method: as §1, §2
Test [1] relates to RARE. The test is described as follows: HRLN transactivation (stably transfected HeLa, RARE3-tk-Luc, endogenic receptors). The test is classed as cell-based. The source says: (§7) The cellular lineages HRLN and HRL+N allow one to study the activation of an RARE by endogenic receptors using ligands at physiological concentrations. These lineages derive from HeLa cells transfected in a stable fashion by a reporter gene which places the expression of the gene of the luciferase under the control of a nuclear response element RARE (RARE3 -tk-Luc). The HeLa cells express all the known receptors of the retinoic acid (RARα,β,γ and RXRα,β,γ) with a predominance of RARα and RXRα. The response element RARE used for the HRLN cells corresponds to the sequence of the natural gene of the RARβ receptor (GGTTCAnnnnnAGTTCA). The HRL+N cells comprise the sequence GAGTGAnnnnnCGGTGA.

The next test deals with RARγ. Nature of the test: Transactivation of chimerical receptor RARγ-ERcassette, transient transfection of HeLa cells. The following applies: 100% = TTNPB 10^-8 M. The test is classed as cell-based.
From the text: as §3, §4, §5, §6

The subject of another test is RAR. Nature of the test: RAR-ERcassette model, specificity profile (transient transfection of HeLa cells). The test is classed as cell-based.
From the text: as §3, §4, §5

Another test has as its system ERE. Nature of the test: Anti-estrogenic effect, MELN cellular lineage (MCF-7 with ERE-βGlob-Luc) activated by estradiol. The class given is cell-based, human. The following applies: for inhibition at 1 µM / inhibition at 0.01 µM: Homo sapiens, read-out: Anti-oestrogenic effect, Inhibition (%); for inhibition at 1 µM: -6 log M (10^-6 M). As to the method:
MCF-7 cells express RARα,γ and RXRα. The transfection of MCF-7 cells by an estrogen-dependent gene (ERE-βGlob-Luc) has permitted the establishment of the MELN cellular lineage, used to determine the anti-oestrogenic activity of the retinoids. These cells contain the gene of the luciferase under the transcriptional control of the promoter of the βGlobine and of the response element ERE isolated from the gene of chicken vitelogenine A2. The experiments are carried out with MELN cells activated by 10^-9 M estradiol. The level of base activity of the MELN cells is obtained with the anti-estrogen 1 μM 4-OH-tamoxifen (hydroxytamoxifen).
The effect of the products tested on the cells activated by 10^-9 M estradiol is expressed as a percentage, the level of base activity being deducted.

Test [2] concerns RARE. The test is described as follows: HRL+N transactivation (stably transfected HeLa, RARE reporter, endogenic receptors). The test is classed as cell-based. The following applies: for activation at 1 µM: Homo sapiens, HeLa, Table 12.
From the text: as §7
The HRL+N lineage allows one to visualize a co-activation of the RAR and RXR receptors at the level of the RAR-RXR hetero-dimer.

The subject of the next test is RARα. The test is described as follows: Transactivation of chimerical receptor RARα-ERcassette, transient transfection of HeLa cells. The test is classed as cell-based. The following applies: for RAR-ERcassette RARα transactivation (%): 100% = TTNPB 10^-8 M.
From the text: as §3, §4, §5, §6

Entries after “also recorded” stand apart in the source; their conditions may differ. Read-outs that look alike come from different tables or passages of the source.

In the case of `Cc1cc2c(cc1/C=C1/CCc3cc(-c4nnn[nH]4)ccc31)C(C)(C)CCC2(C)C` [CB02981, (Z) 5-[1-[2-(5,6,7,8-tetrahydro-3,5,5,8,8-pentamethyl)naphthalenylmethylene]-2,3-dihydro-1H-indenyl]-1H-tetrazole], the “Effect on growth of MCF-7 cells in words” value in the test with MCF-7 cells (estrogenic conditions) is recorded as “no effect whatsoever”. Besides, the “RAR-ERcassette RARβ transactivation (%)” value in the test with RARβ (-6 log M (1 μM)) turned out to be 7%. Also, the “Anti-AP-1 effect (MTLN) in words” value in the test with AP-1 was “in association with a RXR agonist, an additive effect of the inhibiting effects of the two molecules is observed; also recorded: dissociating compound and causes inhibition of the AP-1 ring”. The inhibition at 1 µM is around 20% in the test on AP-1 and 0% in the test on ERE (10^-9 M estradiol). In addition, in the test on T-47D cells (estrogenic conditions), the “Effect on growth of T-47D cells in words” value is on record as “no effect whatsoever”. Further, the “HRLN transactivation in words” value in the test on RARE [1] was “inactive”. Further, the activation at 1 µM in the test with RARE [1] (Homo sapiens, HeLa) stood at 0%; in the test on RARE [2], 0%. Further, the “RAR-ERcassette RARγ transactivation (%)” value with RARγ (-6 log M (1 μM)) was found to be 0%. Also, the “RAR-ERcassette profile in words” value in the test with RAR was “inactive”. In addition, the “HRL+N transactivation in words” value with RARE [2] was “does not cause transactivation mediated by RAR and RXR”. Moreover, the “RAR-ERcassette RARα transactivation (%)” value in the test with RARα (-6 log M (1 μM)) turned out to be 4%.
Take `C/C(=C\c1ccc(C(=O)O)cc1)c1ccc2c(c1)C(C)(C)CCC2(C)C` [TTNPB]: the IC50 in the test on MCF-7 cells (Homo sapiens, MCF7, 168 h, read-out: MCF-7 IC50 (growth inhibition by 50%)) turned out to be 0.35 ± 0.07 nM; in the test with T-47D cells (Homo sapiens, T47D, 168 h, read-out: T-47D IC50 (growth inhibition by 50%)) it was 3.3 ± 1.1 nM. The results for the “Anti-AP-1 effect, Inhibition (%)” value with AP-1 (-7 log M) and with AP-1 (-8 log M) were 29-54% and 26-53%, respectively. Further, in the test on RARE [1] (Homo sapiens, HeLa, read-out: HRLN transactivation EC50), the EC50 was determined as 0.55 ± 0.72 nM. Further, in the test on ERE, the inhibition at 0.01 µM is 30 to 41%. The “Inhibition in MELN” value in the test with ERE (RAR selective molecules, 10^-9 M estradiol) is on record as around 40%.
Consider `CC1(C)CCC(C)(C)c2cc(C(=O)Nc3ccc(C(=O)O)cc3)ccc21` [Am580, 4-[(5,6,7,8-tetrahydro-5,5,8,8-tetramethyl-2-naphthalenyl)carboxamido]benzoic acid], for which the inhibition at 1 µM in the test with MCF-7 cells (Homo sapiens, MCF7, 168 h, at 1 μM, 7 days, estradiol 10^-9 M, read-out: MCF-7 percentage inhibition of growth) is 67%; with T-47D cells (Homo sapiens, T47D, 168 h, at 1 μM, 7 days, estradiol 10^-9 M, read-out: T-47D percentage inhibition of growth) it was 74%. In addition, the entries for the “Anti-AP-1 effect, Inhibition (%)” value with AP-1 (-7 log M) and in the test on AP-1 (-8 log M) were 41-48% and 40-46%, respectively. Also, in the test with ERE (-8 log M, 10^-9 M estradiol), the inhibition at 0.01 µM was in the range of 36 to 51%.
For the compound `Cc1cc2c(cc1/C=C1/CCc3cc(C(=O)O)ccc31)C(C)(C)CCC2(C)C` [CB75403, (Z) 1-[2-(5,6,7,8-tetrahydro-3,5,5,8,8-pentamethyl)naphthalenylmethylene]-2,3-dihydro-1H-indene-5-carboxylic acid], the “RARβ transactivation (RAR-ERcassette) in words” value with RARβ is “same level of transactivation through the intermediary of RARβ at 0.1 μM and at 1 μM and also at 3 μM”. The “RAR-ERcassette RARβ transactivation (%)” value in the test on RARβ (-6 log M (1 μM)) was found to be 65%; in the test on RARβ (-7 log M) it was 68%. In addition, the inhibition at 1 µM is around 30% with AP-1 and 0% in the test on ERE (10^-9 M estradiol). Besides, the “RAR-ERcassette RARγ transactivation (%)” value in the test with RARγ (-6 log M (1 μM)) came to 68%; in the test on RARγ (-7 log M), 40%. Further, the “RAR-ERcassette profile in words” value in the test on RAR was “RARβ,γ specificity; also recorded: RARβ,γ selectivity”. The compound further returned an activation at 1 µM with RARE [2] of 18%. Moreover, the “RARα transactivation (RAR-ERcassette) in words” value in the test with RARα was “inactive on RARα”. Further, the figures for the “RAR-ERcassette RARα transactivation (%)” value with RARα (-6 log M (1 μM)) and in the test with RARα (-7 log M) were 12% and 3%, respectively.
For the compound `CC1(C)CCC(C)(C)c2cc(/C=C3/CCc4cc(-c5nnn[nH]5)ccc43)ccc21` [CB94083, (Z) 5-[1-[2-(5,6,7,8-tetrahydro-5,5,8,8-tetramethyl)naphthalenylmethylene]-2,3-dihydro-1H-indenyl]-1H-tetrazole], the “RAR-ERcassette RARβ transactivation (%)” value in the test on RARβ (-6 log M (1 μM)) is 14%. For the same compound, the “RAR-ERcassette RARγ transactivation (%)” value in the test with RARγ (-6 log M (1 μM)) is listed as 18%. For the same compound, the “RAR-ERcassette profile in words” value in the test with RAR was “weakly active”. For the same compound, the activation at 1 µM with RARE [2] is 13%. Further, the “RAR-ERcassette RARα transactivation (%)” value in the test with RARα (-6 log M (1 μM)) was determined as 4%.

The term inhibition denotes the relative decrease from the control value, in per cent. In general, IC50 refers to the concentration at which inhibition is half-maximal. By EC50 is commonly meant the concentration that produces a half-maximal response.
